Patent US20220117972A1, “USE OF PPAR-DELTA AGONISTS IN THE TREATMENT OF MITOCHONDRIAL MYOPATHY” (Reneo Pharmaceuticals, Inc., priority 2019, published 2022)
Read-outs that look alike come from different tables or passages of the source.

Legend:
PPARα = molecular target: T1, PPARα (UniProt Q4PNY3); experiment: PPAR receptor transactivation assay, monkey PPARα; assay type: cell-based
T1 construct: This is inferred from the cell pool name 'UAS-bla-Gal4' and from the general description in b82 and b85
T1 sequence (Q4PNY3 1-467): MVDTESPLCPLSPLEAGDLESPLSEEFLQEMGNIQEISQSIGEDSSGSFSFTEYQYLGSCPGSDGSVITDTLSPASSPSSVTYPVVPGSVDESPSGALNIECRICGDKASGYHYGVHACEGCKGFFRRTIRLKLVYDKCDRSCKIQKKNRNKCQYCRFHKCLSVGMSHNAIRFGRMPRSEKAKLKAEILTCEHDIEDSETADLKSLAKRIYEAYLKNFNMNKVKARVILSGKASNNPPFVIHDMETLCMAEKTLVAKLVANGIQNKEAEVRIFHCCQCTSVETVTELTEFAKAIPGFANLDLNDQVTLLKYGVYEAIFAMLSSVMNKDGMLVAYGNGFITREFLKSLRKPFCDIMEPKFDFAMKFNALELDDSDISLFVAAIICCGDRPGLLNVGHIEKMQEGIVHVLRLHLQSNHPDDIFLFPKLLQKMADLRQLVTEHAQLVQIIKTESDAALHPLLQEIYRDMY

human muscle cell lines = experiment: fatty acid oxidation in human muscle cell line; assay type: cell-based; details: in vitro
PPARγ = molecular target: T2, PPARγ (Macaca mulatta, UniProt O18924); experiment: PPAR receptor transactivation assay, monkey PPARγ; assay type: cell-based
T2 construct: expressed in transfected cells; host or cells: Jump-In GripTite HEK293
T2 sequence (O18924 238-503 limits assumed): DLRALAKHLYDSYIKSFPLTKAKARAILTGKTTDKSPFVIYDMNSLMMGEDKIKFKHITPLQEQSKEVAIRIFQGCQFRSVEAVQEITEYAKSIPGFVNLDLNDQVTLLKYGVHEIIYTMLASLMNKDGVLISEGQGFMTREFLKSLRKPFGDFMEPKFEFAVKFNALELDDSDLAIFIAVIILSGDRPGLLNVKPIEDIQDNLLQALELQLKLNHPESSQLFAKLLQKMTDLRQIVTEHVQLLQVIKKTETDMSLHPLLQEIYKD
Procedure: (§1) The genes of interest were synthesized and cloned into an appropriate Jump-In™ retargeting vector following the User Guide of the Jump-In™ T-REx™ HEK293 Retargeting Kit (ThermoFisher Catalog No A15008). For example, the vector will be used to transfect and retarget the Jump-In™ HEK293 GripTite™ parental cell line. Stable pools will be antibiotic-selected for about 21 days and tested for target gene expression by functional assay.
(§2) Jump-In™ GripTite™ HEK293 parental cells were plated at 60-80% confluency in a T-75 flask in growth medium without antibiotics and transfected with a 1:1 ratio of expression construct and R4 integrase expression construct (20 μg DNA total) using Lipofectamine® LTX (50 μL) and PLUS™ Reagent (20 μL). Following a 48 hours incubation, cells were selected with 600 μg/mL Geneticin® and 10 μg/mL Blasticidin for ˜21 days in growth medium.
Jump-In™ GripTite™ HEK293 rPPAR Alpha, Delta or Gamma UAS-bla-Gal4 cell pools were plated in a 384-well plate format (20,000 cells per well) in OptiMeM without FBS in replicates (n=4). […] After 16 hours, the cells were loaded with LiveBLAzer®, a fluorescent BLA substrate that gives a blue/green readout of expressing/non-expressing cells, respectively. The blue/green readout was measured on a fluorescent plate reader (Tecan Safire II).

PGC1, CPT1b expression = experiment: in vivo gene expression in mouse muscle, second study (time course); details: male C57BL/6 mice, 30 mg/kg once daily, at 48 hrs
Procedure: In a second study, male C57BL/6 mice were dosed once daily for four consecutive days. On the first day of treatment all mice in each group received a single dose of either the vehicle or Compound 1 at 30 mg/kg. Following the dose administration on the first day, five mice from each group were anesthetized and euthanized at each of the following time points: 1, 2, 4, 8, 24, 48, 72 and 96 hours. Animals left after the time point 24 hours received the second dose. Animals left after the time point 48 hours received the third dose. Animals left after the time point 72 hours received the fourth dose. Mice designated for time point 96 hours were euthanized on day 5.

PPARδ [1] = molecular target: T3, PPARδ (UniProt I0FFS1); experiment: PPAR receptor transactivation assay, monkey PPARδ; assay type: cell-based
T3 construct: This is inferred from the cell pool name 'UAS-bla-Gal4' and from the general description in b82 and b85
T3 sequence (I0FFS1 1-441): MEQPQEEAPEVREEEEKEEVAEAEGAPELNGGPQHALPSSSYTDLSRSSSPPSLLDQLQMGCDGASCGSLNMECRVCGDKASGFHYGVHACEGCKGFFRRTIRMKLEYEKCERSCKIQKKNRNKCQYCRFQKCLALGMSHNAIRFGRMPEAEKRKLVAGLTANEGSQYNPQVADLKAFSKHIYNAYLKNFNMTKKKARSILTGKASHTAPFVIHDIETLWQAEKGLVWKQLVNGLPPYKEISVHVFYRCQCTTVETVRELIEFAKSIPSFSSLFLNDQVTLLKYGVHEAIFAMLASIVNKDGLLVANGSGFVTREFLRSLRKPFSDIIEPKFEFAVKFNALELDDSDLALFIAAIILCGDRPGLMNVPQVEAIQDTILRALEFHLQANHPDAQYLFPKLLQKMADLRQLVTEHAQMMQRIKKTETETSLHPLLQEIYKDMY

PPARδ [2] = molecular target: T4, PPARδ (Mus musculus, UniProt P35396); experiment: PPAR receptor transactivation assay, mouse PPARδ; assay type: cell-based
T4 construct: expressed in transfected cells; host or cells: Jump-In GripTite HEK293
T4 sequence (P35396 210-438 limits assumed): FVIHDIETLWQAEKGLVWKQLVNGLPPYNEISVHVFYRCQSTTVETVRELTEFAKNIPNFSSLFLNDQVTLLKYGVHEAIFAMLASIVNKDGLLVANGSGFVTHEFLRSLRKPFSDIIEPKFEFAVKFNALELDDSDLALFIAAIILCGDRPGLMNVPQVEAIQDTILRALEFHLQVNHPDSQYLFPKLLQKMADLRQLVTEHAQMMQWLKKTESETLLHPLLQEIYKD

hPPARα = molecular target: T5, hPPARα (Homo sapiens, UniProt Q07869); experiment: PPAR receptor transactivation assay, human PPARα; assay type: cell-based
T5 construct: expressed in transfected cells; host or cells: Jump-In GripTite HEK293
T5 sequence (Q07869 239-466 limits assumed): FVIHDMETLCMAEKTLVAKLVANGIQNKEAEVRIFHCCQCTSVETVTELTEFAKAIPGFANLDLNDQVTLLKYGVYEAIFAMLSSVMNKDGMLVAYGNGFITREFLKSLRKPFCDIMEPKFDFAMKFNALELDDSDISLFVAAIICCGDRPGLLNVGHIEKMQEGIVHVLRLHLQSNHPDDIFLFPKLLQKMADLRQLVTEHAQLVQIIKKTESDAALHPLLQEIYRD
Procedure: Compound 1 was tested on all three human PPAR subtypes (hPPAR): hPPARα, hPPARγ, and hPPARδ. All assays were repeated at least three times for each subtype.
as §1, §2
Jump-In™ GripTite™ HEK293 rPPAR Alpha, Delta or Gamma UAS-bla-Gal4 cell pools were plated in a 384-well plate format (20,000 cells per well) in OptiMeM without FBS in replicates (n=4). Cells were allowed to adhere for 8 hours before addition of Compound 1 (1 mM top concentration, 3-fold dilutions, 10-point titration). After 16 hours, the cells were loaded with LiveBLAzer®, a fluorescent BLA substrate that gives a blue/green readout of expressing/non-expressing cells, respectively. The blue/green readout was measured on a fluorescent plate reader (Tecan Safire II).

EC50 (PPARα): > 1000 nM
EC50 (PPARγ): > 1000 nM
EC50 (PPARδ [1]): 6.6 nM
EC50 (PPARδ [2]): 240 nM
EC50 (hPPARα; Human PPARα, read-out: EC50 (nM) Mean): > 10000 nM
EC50 (hPPARα; human PPARα, Example 12, read-out: EC50): > 10000 nM
activity on PPARα in transactivation assays (hPPARα; in some cases): negligible activity
agonist type at PPARα (hPPARα; in some cases): partial agonist
Structure (SMILES): Cc1cc(OC/C=C(/c2ccc(F)cc2)c2ccc(C#CCN3CCOCC3)cc2)ccc1OCC(=O)O [Compound 1, (E)-[4-[3-(4-Fluorophenyl)-3-[4-[3-(morpholin-4-yl)propynyl]phenyl]allyloxy]-2-methyl-phenoxy]acetic acid]
fatty acid oxidation (human muscle cell lines): dose-dependent increase
expression of CPT1b (PGC1, CPT1b expression): increased the expression
expression of PGC1 (PGC1, CPT1b expression): increased the expression
